Experimental data published in patent publication US20260022143A1, “Cyclic Peptide Inhibitors of IL-23” (JANSSEN PHARMACEUTICA NV, priority 2022, published 2026).
Starred links: 1 amine or outer side, 2 acyl side, 3 side chain; linkers in the order of their positions; H or OH if unused. Positions of bridges follow the written chain, without caps; N, C: chain ends. Non-standard residues stand in square brackets, D forms with d. Residues, ends and D or L forms follow the SMILES beside them. *: point of attachment. Me3N+(CH2)2O(CH2)2O(CH2)2CO = C[N+](C)(C)CCOCCOCCC(=O)*; X34 = C[N+](C)(C)CCOCCOCCC(=O)N(CC[N+](C)(C)C)CC*; CH2CH2OCH2CH2OCH2CH2NMe3+ = C[N+](C)(C)CCOCCOCC*; Trp(7-Me) = Cc1cccc2c(C[C@H](N)C(=O)O)c[nH]c12; Hexanoyl(6-NMe3+) = C[N+](C)(C)CCCCCC(=O)*; Decanoyl(3,6,9-trioxa) = COCCOCCOCC(=O)*; Dab(NMeAc) = CC(=O)N(C)CC[C@H](N)C(=O)O; X1 = CN(CC[C@H](N[*:1])C(=O)[*:2])[*:3]; 2Nal = N[C@@H](Cc1ccc2ccccc2c1)C(=O)O; AEF = NCCOc1ccc(C[C@H](N)C(=O)O)cc1; X24 = C[N+](C)(CCN[*:1])CC(=O)[*:2]; 3Pal = N[C@@H](Cc1cccnc1)C(=O)O; Lys(Me) = CNCCCC[C@H](N)C(=O)O; Pen = CC(C)(S)[C@H](N)C(=O)O; X4 = COCCOCCCN(CCCOCCOC)CC*; X86 = C[N+]1(C)CCCC(C*)C1; Thp = NC1(C(=O)O)CCOCC1; Dap = NC[C@H](N)C(=O)O; X3 = C[N+](C)(C)CCCCC*; X61 = COCCOCCCNCC*; Sar = CNCC(=O)O

Assay: Exposed Polar Surface Area (EPSA)
Assay type: physicochemical
Conditions: SFC on Chirex 3014 column; sample 1 mM DMSO stock; read-out: EPSA
Method in brief: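 Compounds, as 1 mM DMSO stock, were injected in duplicate onto an SFC Chirex 3014 column at 35 °C and eluted with a CO2/methanol (20 mM ammonium formate) gradient. EPSA values in Å^2 were derived from retention times using a linear fit to eight calibration standards, reinjected every 20 compounds.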
For `CC(=O)N[C@@H]1C(=O)N[C@@H](CC(=O)N(C)C)C(=O)N[C@@H]([C@@H](C)O)C(=O)N[C@@H](Cc2c[nH]c3c(C)cccc23)C(=O)N[C@@H](CCCCN(C)C(C)=O)C(=O)N[C@H](C(=O)N[C@@H](Cc2ccc(OCCCCC[N+](C)(C)C)cc2)C(=O)N[C@@H](Cc2ccc3ccccc3c2)C(=O)NC2(C(=O)N[C@@H](CCCCN(C)C(C)=O)C(=O)N[C@@H](CC(N)=O)C(=O)N[C@@H](Cc3cccnc3)C(=O)N(C)CC(=O)N(C)C)CCOCC2)C(C)(C)SSC1(C)C` [compound 190, MeCO-Pen(3)-N(N(Me)2)-T-7MeW-K(NMeAc)-Pen(3)-TMAPF-2Nal-THP-K(NMeAc)-N-3Pya-Sar-CON(Me)2] (Ac-[Pen]D(NMe2)T[Trp(7-Me)][Lys(Me)](Ac)[Pen]Y(X3)[2Nal][Thp][Lys(Me)](Ac)N[3Pal][Sar]-NMe2; disulfide 1-6 (inferred)), the EPSA was 137 A^2.
For `CC(=O)NCCCC[C@@H]1NC(=O)[C@H](Cc2c[nH]c3c(C)cccc23)NC(=O)[C@H]([C@@H](C)O)NC(=O)[C@H](CC(N)=O)NC(=O)[C@@H](NC(=O)CCCCC[N+](C)(C)C)C(C)(C)SSC(C)(C)[C@@H](C(=O)N[C@@H](Cc2ccc(OCCNC(=O)CCOCCOCC[N+](C)(C)C)cc2)C(=O)N[C@@H](Cc2ccc3ccccc3c2)C(=O)NC2(C(=O)N[C@@H](CNC(C)=O)C(=O)N[C@@H](CC(N)=O)C(=O)N[C@@H](Cc3cccnc3)C(=O)N(C)CC(N)=O)CCOCC2)NC1=O` [compound 192], the EPSA was 149 A^2.
In the case of `CC(=O)NCCCC[C@@H]1NC(=O)[C@H](Cc2c[nH]c3c(C)cccc23)NC(=O)[C@H]([C@@H](C)O)NC(=O)[C@H](CC(N)=O)NC(=O)[C@@H](NC(C)=O)C(C)(C)SSC(C)(C)[C@@H](C(=O)N[C@@H](Cc2ccc(OCCOCCOCC[N+](C)(C)C)cc2)C(=O)N[C@@H](Cc2ccc3ccccc3c2)C(=O)NC2(C(=O)N[C@@H](CCCCNC(C)=O)C(=O)N[C@@H](CC(N)=O)C(=O)N[C@@H](Cc3cccnc3)C(=O)N(C)CC(N)=O)CCOCC2)NC1=O` [compound 194] (Ac-[Pen]NT[Trp(7-Me)]K(Ac)[Pen]Y(CH2CH2OCH2CH2OCH2CH2NMe3+)[2Nal][Thp]K(Ac)N[3Pal][Sar]-NH2; disulfide 1-6), the EPSA is reported as 146 A^2.
Compound `CC(=O)NCCCC[C@@H]1NC(=O)[C@H](Cc2c[nH]c3c(C)cccc23)NC(=O)[C@H]([C@@H](C)O)NC(=O)[C@H](CC(N)=O)NC(=O)[C@@H](NC(=O)CCOCCOCC[N+](C)(C)C)C(C)(C)SSC(C)(C)[C@@H](C(=O)N[C@@H](Cc2ccc(OCCOCCOCC[N+](C)(C)C)cc2)C(=O)N[C@@H](Cc2ccc3ccccc3c2)C(=O)NC2(C(=O)N[C@@H](CCCCNC(C)=O)C(=O)N[C@@H](CC(N)=O)C(=O)N[C@@H](Cc3cccnc3)C(=O)N(C)CC(N)=O)CCOCC2)NC1=O` [compound 195, cPEG3aCO-Pen(3)-N-T-7MeW-K(Ac)-Pen(3)-APEG3F-2Nal-THP-K(Ac)-N-3Pya-Sar-CONH2] ({Me3N+(CH2)2O(CH2)2O(CH2)2CO}-[Pen]NT[Trp(7-Me)]K(Ac)[Pen]Y(CH2CH2OCH2CH2OCH2CH2NMe3+)[2Nal][Thp]K(Ac)N[3Pal][Sar]-NH2; disulfide 1-6) has an EPSA of 147 A^2.
For `CC(=O)N(C)CC[C@H](NC(=O)C1(NC(=O)[C@H](Cc2ccc3ccccc3c2)NC(=O)[C@H](Cc2ccc(OCCN)cc2)NC(=O)[C@H]2NC(=O)[C@H](CCN(C)C(=O)CCOCCOCC[N+](C)(C)C)NC(=O)[C@H](Cc3c[nH]c4c(C)cccc34)NC(=O)[C@H]([C@@H](C)O)NC(=O)[C@H](CC(=O)N(C)C)NC(=O)[C@@H](NC(=O)CCOCCOCC[N+](C)(C)C)C(C)(C)SSC2(C)C)CCOCC1)C(=O)N[C@@H](CC(N)=O)C(=O)N[C@@H](Cc1cccnc1)C(=O)N(C)CC(=O)N(C)C` [compound 196, cPEG3aCO-Pen(3)-N(N(Me)2)-T-7MeW-Dab(NMecPEG3a)-Pen(3)-AEF-2Nal-THP-Dab(NMeAc)-N-3Pya-Sar-CON(Me)2] ({Me3N+(CH2)2O(CH2)2O(CH2)2CO}-[Pen]D(NMe2)T[Trp(7-Me)][X1](Me3N+(CH2)2O(CH2)2O(CH2)2CO)[Pen][AEF][2Nal][Thp][Dab(NMeAc)]N[3Pal][Sar]-NMe2; disulfide 1-6 (inferred)), the EPSA was 149 A^2.
`COCCOCCOCC(=O)NCC[N+](C)(C)CC(=O)N[C@@H]1C(=O)N[C@@H](CC(=O)N(C)C)C(=O)N[C@@H]([C@@H](C)O)C(=O)N[C@@H](Cc2c[nH]c3c(C)cccc23)C(=O)N[C@@H](CCCCN(C)C(C)=O)C(=O)N[C@H](C(=O)N[C@@H](Cc2ccc(OCCOCCOCC[N+](C)(C)C)cc2)C(=O)N[C@@H](Cc2ccc3ccccc3c2)C(=O)NC2(C(=O)N[C@@H](CCN(C)C(C)=O)C(=O)N[C@@H](CC(N)=O)C(=O)N[C@@H](Cc3cccnc3)C(=O)N(C)CC(=O)N(C)C)CCOCC2)C(C)(C)SSC1(C)C` [compound 197, mPEG3CO-SP6-Pen(3)-N(N(Me)2)-T-7MeW-K(NMeAc)-Pen(3)-APEG3F-2Nal-THP-Dab(NMeAc)-N-3Pya-Sar-CON(Me)2] ({Decanoyl(3,6,9-trioxa)}-[X24][Pen]D(NMe2)T[Trp(7-Me)][Lys(Me)](Ac)[Pen]Y(CH2CH2OCH2CH2OCH2CH2NMe3+)[2Nal][Thp][Dab(NMeAc)]N[3Pal][Sar]-NMe2; disulfide 2-7) gave an EPSA of 137 A^2.
`COCCOCCCNCCOc1ccc(C[C@H](NC(=O)[C@H]2NC(=O)[C@H](CCCCNC(C)=O)NC(=O)[C@H](Cc3c[nH]c4c(C)cccc34)NC(=O)[C@H]([C@@H](C)O)NC(=O)[C@H](CC(N)=O)NC(=O)[C@@H](NC(=O)CCCCC[N+](C)(C)C)C(C)(C)SSC2(C)C)C(=O)N[C@@H](Cc2ccc3ccccc3c2)C(=O)NC2(C(=O)N[C@@H](CNC(C)=O)C(=O)N[C@@H](CC(N)=O)C(=O)N[C@@H](Cc3cccnc3)C(=O)N(C)CC(N)=O)CCOCC2)cc1` [compound 204] ({Hexanoyl(6-NMe3+)}-[Pen]NT[Trp(7-Me)]K(Ac)[Pen]Y(X61)[2Nal][Thp][Dap](Ac)N[3Pal][Sar]-NH2; disulfide 1-6) showed an EPSA of 153 A^2.
Work on `COCCOCCCN(CCCOCCOC)CCOc1ccc(C[C@H](NC(=O)[C@H]2NC(=O)[C@H](CCCCNC(C)=O)NC(=O)[C@H](Cc3c[nH]c4c(C)cccc34)NC(=O)[C@H]([C@@H](C)O)NC(=O)[C@H](CC(N)=O)NC(=O)[C@@H](NC(=O)CCCCC[N+](C)(C)C)C(C)(C)SSC2(C)C)C(=O)N[C@@H](Cc2ccc3ccccc3c2)C(=O)NC2(C(=O)N[C@@H](CNC(C)=O)C(=O)N[C@@H](CC(N)=O)C(=O)N[C@@H](Cc3cccnc3)C(=O)N(C)CC(N)=O)CCOCC2)cc1` [compound 205] ({Hexanoyl(6-NMe3+)}-[Pen]NT[Trp(7-Me)]K(Ac)[Pen]Y(X4)[2Nal][Thp][Dap](Ac)N[3Pal][Sar]-NH2; disulfide 1-6) yielded an EPSA of 149 A^2.
Compound `CC(=O)N(C)CCCC[C@@H]1NC(=O)[C@H](Cc2c[nH]c3c(C)cccc23)NC(=O)[C@H]([C@@H](C)O)NC(=O)[C@H](CC(=O)N(C)C)NC(=O)[C@@H](NC(=O)CCOCCOCC[N+](C)(C)C)C(C)(C)SSC(C)(C)[C@@H](C(=O)N[C@@H](Cc2ccc(OCCN(CC[N+](C)(C)C)C(=O)CCOCCOCC[N+](C)(C)C)cc2)C(=O)N[C@@H](Cc2ccc3ccccc3c2)C(=O)NC2(C(=O)N[C@@H](CCCCN(C)C(C)=O)C(=O)N[C@@H](CC(N)=O)C(=O)N[C@@H](Cc3cccnc3)C(=O)N(C)CC(=O)N(C)C)CCOCC2)NC1=O` [compound 208, cPEG3aCO-Pen(3)-N(N(Me)2)-T-7MeW-K(NMeAc)-Pen(3)-AEF((Ch)cPEG3a)-2Nal-THP-K(NMeAc)-N-3Pya-Sar-CON(Me)2] ({Me3N+(CH2)2O(CH2)2O(CH2)2CO}-[Pen]D(NMe2)T[Trp(7-Me)][Lys(Me)](Ac)[Pen]Y(X34)[2Nal][Thp][Lys(Me)](Ac)N[3Pal][Sar]-NMe2; disulfide 1-6) has an EPSA of 141 A^2.
`CC(=O)N(C)CCCC[C@@H]1NC(=O)[C@H](Cc2c[nH]c3c(C)cccc23)NC(=O)[C@H]([C@@H](C)O)NC(=O)[C@H](CC(=O)N(C)C)NC(=O)[C@@H](NC(=O)CCOCCOCC[N+](C)(C)C)C(C)(C)SSC(C)(C)[C@@H](C(=O)N[C@@H](Cc2ccc(OCCOCCOCC[N+](C)(C)C)cc2)C(=O)N[C@@H](Cc2ccc3ccccc3c2)C(=O)NC2(C(=O)N[C@@H](CCN(C)C(C)=O)C(=O)N[C@@H](CC(N)=O)C(=O)N[C@@H](Cc3cccnc3)C(=O)N(C)CC(=O)N(C)C)CCOCC2)NC1=O` [compound 209, cPEG3aCO-Pen(3)-N(N(Me)2)-T-7MeW-K(NMeAc)-Pen(3)-APEG3F-2Nal-THP-Dab(NMeAc)-N-3Pya-Sar-CON(Me)2] ({Me3N+(CH2)2O(CH2)2O(CH2)2CO}-[Pen]D(NMe2)T[Trp(7-Me)][Lys(Me)](Ac)[Pen]Y(CH2CH2OCH2CH2OCH2CH2NMe3+)[2Nal][Thp][Dab(NMeAc)]N[3Pal][Sar]-NMe2; disulfide 1-6) gave an EPSA of 139 A^2.
`CC(=O)N(C)CCCC[C@@H]1NC(=O)[C@H](Cc2c[nH]c3c(C)cccc23)NC(=O)[C@H]([C@@H](C)O)NC(=O)[C@H](CC(=O)N(C)C)NC(=O)[C@@H](NC(=O)CCOCCOCC[N+](C)(C)C)C(C)(C)SSC(C)(C)[C@@H](C(=O)N[C@@H](Cc2ccc(OCC3CCC[N+](C)(C)C3)cc2)C(=O)N[C@@H](Cc2ccc3ccccc3c2)C(=O)NC2(C(=O)N[C@@H](CCCCN(C)C(C)=O)C(=O)N[C@@H](CC(N)=O)C(=O)N[C@@H](Cc3cccnc3)C(=O)N(C)CC(=O)N(C)C)CCOCC2)NC1=O` (stereo partly drawn) [compound 215, cPEG3aCO-Pen(3)-N(N(Me)2)-T-7MeW-K(NMeAc)-Pen(3)-DMMMF-2Nal-THP-K(NMeAc)-N-3Pya-Sar-CON(Me)2] ({Me3N+(CH2)2O(CH2)2O(CH2)2CO}-[Pen]D(NMe2)T[Trp(7-Me)][Lys(Me)](Ac)[Pen]Y(X86)[2Nal][Thp][Lys(Me)](Ac)N[3Pal][Sar]-NMe2; disulfide 1-6) showed an EPSA of 145 A^2.
